Test results reported in article PMC6423055, “Cathelicidins PMAP-36, LL-37 and CATH-2 are similar peptides with different modes of action” (Scientific Reports, 2019).
Read-outs that look alike come from different tables or passages of the source. Positions of bridges follow the written chain, without caps; N, C: chain ends. Chains are numbered I, II in the order given. No end group written: not given here.

What was measured:
Escherichia coli O78 [1] = assay type: cell-based
Protocol: Escherichia coli O78 (E. coli) (Clinical isolate, Zoetis Animal Health, Kalamazoo, MI, USA) was grown in Mueller Hinton Broth (MHB) (Becton Dickinson, USA) to mid-logarithmic phase under constant shaking (200 RPM) at 37 °C. Antimicrobial activity of the peptides was tested using the colony count assay as described before. […] Next, 10-fold dilutions were made, of which 100 μl of the dilutions was spread to tryptic soy agar (TSA) (Oxoid, Basingstoke, UK) plates. Plates were incubated overnight at 37 °C and colonies were counted to determine the number of surviving bacteria. Minimal Bactericidal Concentration (MBC) was defined as ≤100 CFU/ml, the detection limit of the assay.
(§1) For transmission electron microscopy (TEM), E. coli was used in a higher concentration, (5*10^8 CFU/ml). […] E. coli was incubated with the peptides at MBC concentration or sub-MBC concentration (4x below MBC concentration). After 60 min at 37 °C, fixative (4% glutaraldehyde, 5 mM CaCl2, 10 mM MgCl2 (all from Merck, Darmstadt, Germany) in 0.1 M sodium cacodylate buffer (Sigma) pH 7.4) was added 1:1 to the bacterial-peptide mixture and left for fixation overnight at 4 °C. Samples were washed three times in 0.1 M sodium cacodylate buffer and resuspended in 4% low melting point agarose (Sigma). Samples were post-fixed with 1% osmium tetroxide (Electron Microscopy Sciences (EMS), Hatfield, PA, USA), 1.5% K3Fe(CN)6 (Merck) and 65 mM sodium cacodylate buffer for 2 hours at 4 °C to improve the contrast. After extensive washing with distilled water (5 × 10 min), samples were incubated for 60 min with 0.5% uranyl acetate (EMS) at 4 °C to improve cytoplasmic contrast. After washing with distilled water (3 × 10 min), samples were dehydrated with increasing concentration ethanol and embedded in Epon. […] Morphological effects were quantified for around 100 cells per condition.

porcine PBMCs = experiment: Cell viability, WST-1 assay; settings: WST-1, 24 h, effect at 20–40 μM, N = 6
RAW264.7 cells = experiment: Cell viability, WST-1 assay; settings: WST-1, 24 h, peptide up to 40 μM, no peptide = 100% viability
porcine red blood cells = experiment: Hemolysis (heme release); settings: peptide 0.63–40 μM, 60 min 37 °C, A405, 0.2% Triton X-100 = 100% lysis, N = 5–7
[2] = tested on: LPS-induced TNFα secretion by RAW264.7 cells; experiment: LPS stimulation, TNFα release (ELISA); assay type: cell-based, murine; settings: for LPS neutralization, TNFα secretion: compared with full-length PMAP-36
Escherichia coli O78 [3] = settings: for Antibacterial activity against E. coli O78 compared with parent or dimeric counterpart: N = 3–7; for Minimal Bactericidal Concentration (MBC): O78, 3 h
[4] = tested on: LPS-induced NO production by RAW264.7 cells; assay type: cell-based, murine; settings: 100 ng/ml LPS O111:B4, 24 h, Griess assay, compared with full-length PMAP-36
Escherichia coli O78 [5] = experiment: Transmission electron microscopy of peptide-treated bacteria; assay type: cell-based; settings: TEM, 5*10^8 CFU/ml, 60 min 37 °C
Protocol: as §1

[6] = Isothermal titration calorimetry, peptide binding to LPS; set-up: species or system Escherichia coli; settings: ITC, 37 °C
Protocol: Isothermal titration calorimetry (ITC) was performed with the Low Volume NanoITC (TA Instruments-Waters LLC, New Castle, DE, USA) to determine interaction between LPS and the different peptides. 100 μM UltraPure LPS E. coli O111:B4 was diluted in MilliQ, after which 4x dilution in dPBS (Gibco) was made. Peptides were diluted to 800 μM in MilliQ, followed by 4-fold dilution in dPBS. The chamber was filled with 164 μl LPS, the peptide was titrated into the chamber with 1.96 μl every 300 seconds. Experiments were performed at 37 °C and analyzed using the Nano Analyze software (TA instruments-Waters LLC). All experiments were performed 2 times and corrected for buffer in buffer titration, after which the both experiments were averaged. Two independent models were used, except for LL-37 with one independent model fit, to determine the peptide-LPS interaction.

Compound | LPS neutralization, TNFα secretion ([2]; 100 ng/ml LPS O111:B4, 24 h) | Antibacterial activity against E. coli O78 compared with parent or dimeric counterpart (Escherichia coli O78 [3]; 10^6 CFU/ml, 3 h 37 °C) | LPS neutralization, NO production [4] | Minimal Bactericidal Concentration (MBC) (Escherichia coli O78 [3]) | also measured
CC[C@H](C)[C@H](NC(=O)[C@H](CCCCN)NC(=O)[C@H](CCC(=O)O)NC(=O)[C@H](CCCCN)NC(=O)[C@H](CO)NC(=O)[C@H](CCCCN)NC(=O)[C@H](CCCNC(=N)N)NC(=O)[C@H](Cc1ccccc1)NC(=O)[C@H](Cc1ccccc1)NC(=O)[C@H](CC(=O)O)NC(=O)CNC(=O)[C@H](CC(C)C)NC(=O)[C@@H](N)CC(C)C)C(=O)NCC(=O)N[C@@H](CCCCN)C(=O)N[C@@H](CCC(=O)O)C(=O)N[C@@H](Cc1ccccc1)C(=O)N[C@@H](CCCCN)C(=O)N[C@@H](CCCNC(=N)N)C(=O)N[C@H](C(=O)N[C@H](C(=O)N[C@@H](CCC(N)=O)C(=O)N[C@@H](CCCNC(=N)N)C(=O)N[C@H](C(=O)N[C@@H](CCCCN)C(=O)N[C@@H](CC(=O)O)C(=O)N[C@@H](Cc1ccccc1)C(=O)N[C@@H](CC(C)C)C(=O)N[C@@H](CCCNC(=N)N)C(=O)N[C@@H](CC(N)=O)C(=O)N[C@@H](CC(C)C)C(=O)N[C@H](C(=O)N1CCC[C@H]1C(=O)N[C@@H](CCCNC(=N)N)C(=O)N[C@H](C(=O)N[C@@H](CCC(=O)O)C(=O)N[C@@H](CO)C(=O)O)[C@@H](C)O)C(C)C)[C@@H](C)CC)C(C)C)[C@@H](C)CC [LL-37] |  |  |  |  | MBC at higher density of bacteria (Escherichia coli O78 [1]; 5*10^8 CFU/ml E. coli O78, density used for TEM): 160 µM; Cytotoxicity against porcine PBMCs (porcine PBMCs): not; Cytotoxicity against RAW264.7 cells (RAW264.7 cells): mildly cytotoxic; Hemolysis of porcine erythrocytes (porcine red blood cells): less than 10%
Ac-GRFRRLRKKTRKRLKKIGKVLKWIPPIVGSIPLGS [mP1, monomeric analog of PMAP-36, Cys35 replaced by serine, last amino acid deleted] | as efficient as the full-length peptide | slightly increased compared to their dimeric counterparts | as efficient as the full-length peptide |  | 
Ac-KIGKVLKWIPPIVGSIPLGS [mP16] |  | lost its antibacterial activity completely |  |  | 
Ac-KRLKKIGKVLKWIPPIVGSIPLGCG (disulfide (positions not given here)) [Peptide P12, PMAP-36 analog with N-terminal truncation of 11 amino acids] | as strongly inhibited | slightly more efficient than the full-length peptide | as strongly inhibited |  | 
Ac-KRLKKIGKVLKWIPPIVGSIPLGS [mP12, monomeric analog of P12] | strongly reduced LPS neutralizing capacity | identical to P12 | strongly reduced LPS neutralizing capacity |  | 
Ac-RKKTRKRLKKIGKVLKWIPPIVGSIPLGS [mP7, monomeric analog of P7] | strongly reduced LPS neutralizing capacity | slightly increased compared to their dimeric counterparts | strongly reduced LPS neutralizing capacity |  | 
I: Ac-GRFRRLRKKTRKRLKKIGKVLKWIPPIVGSIPLGCG / II: Ac-GRFRRLRKKTRKRLKKIGKVLKWIPPIVGSIPLGCG (disulfide I:35-II:35) [PMAP-36] |  |  |  | 5 to 10 µM | MBC at higher density of bacteria (Escherichia coli O78 [1]; O78, 3 h): 20 µM; Concentration completely blocking TNFα secretion ([2]; 100 ng/ml LPS O111:B4, 24 h, N = 3): 10 µM; IC50 ([2]; 100 ng/ml LPS O111:B4, RAW264.7, 24 h, read-out: Concentration reducing LPS-induced macrophage activation for 50%): 5 µM; Morphological changes of E. coli O78 at sub-MBC (Escherichia coli O78 [5]; 4x below MBC (PMAP-36 5 μM, CATH-2 10 μM, LL-37 40 μM)): release of small vesicles; Morphological changes of E. coli O78 at MBC (Escherichia coli O78 [5]; MBC (PMAP-36 20 μM, CATH-2 40 μM, LL-37 160 μM)): DNA and ribosomes were clustered and located close to the inner membrane; Concentration giving significant inhibition of E. coli O78 (Escherichia coli O78 [3]; 10^6 CFU/ml, 3 h 37 °C, vs no peptide control, N = 3–4): 2.5 µM; LPS binding [6]: strong LPS binding capacity
I: Ac-KIGKVLKWIPPIVGSIPLGCG / II: Ac-KIGKVLKWIPPIVGSIPLGCG (disulfide I:20-II:20) [Peptide P16] | completely lost its LPS neutralizing capacity |  | completely lost its LPS neutralizing capacity | > 40 µM | LPS binding [6]: still bound strongly to LPS
I: Ac-RKKTRKRLKKIGKVLKWIPPIVGSIPLGCG / II: Ac-RKKTRKRLKKIGKVLKWIPPIVGSIPLGCG (disulfide I:29-II:29) [Peptide P7] | as strongly inhibited | slightly more efficient than the full-length peptide | as strongly inhibited |  | 
RFGRFLRKIRRFRPKVTITIQGSARF-NH2 [CATH-2] |  |  |  | 5 to 10 µM | MBC at higher density of bacteria (Escherichia coli O78 [1]; O78, 3 h): 40 µM
